According to ChEMBL document CHEMBL5506074, “Discovery and Optimization of Tetrahydroisoquinoline Derivatives To Enhance Lysosome Biogenesis as Preclinical Candidates for the Treatment of Alzheimer's Disease” (J Med Chem, 2024):
The source made the active and inactive calls.

How the values were obtained:
[1] = Induction of TFEB nuclear translocation in human HeLa cells expressing EGFP at 10 uM measured at 3 hrs by fluorescence microscopic analysis; type: functional
[2] = Induction of TFEB nuclear translocation in human HeLa cells expressing EGFP at 10 uM measured at 6 hrs by fluorescence microscopic analysis; type: functional
[3] = Induction of TFEB nuclear translocation in human HeLa cells expressing EGFP at 30 uM measured at 3 hrs by fluorescence microscopic analysis; type: functional
[4] = Induction of TFEB nuclear translocation in human HeLa cells expressing EGFP at 30 uM measured at 6 hrs by fluorescence microscopic analysis; type: functional
[5] = AUC (0 to t) in ICR mouse at 5 mg/kg, iv measured upto 24 hrs by LC-MS/MS analysis; type: ADME, organism-based; conditions: ICR, in vivo
HeLa [6] = experiment: Induction of lysosome biogenesis in human HeLa cells assessed as increase in number of acidified lysosomes at 10 uM incubated for 24 hrs by LysiTracker red staining based flow cytometry analysis; type: functional, cell-based
HeLa [7] = experiment: Upregulation of LAMP1 mRNA expression in human HeLa cells at 10 uM incubated for 24 hrs by qRT-PCR analysis; type: functional, cell-based
HeLa [8] = experiment: Upregulation of HEXA mRNA expression in human HeLa cells at 10 uM incubated for 24 hrs by qRT-PCR analysis; type: functional, cell-based
HeLa [9] = experiment: Upregulation of CTSD mRNA expression in human HeLa cells at 10 uM incubated for 24 hrs by qRT-PCR analysis; type: functional, cell-based
HeLa [10] = experiment: Upregulation of CTSF mRNA expression in human HeLa cells at 10 uM incubated for 24 hrs by qRT-PCR analysis; type: functional, cell-based
HeLa [11] = experiment: Upregulation of LC3B mRNA expression in human HeLa cells at 10 uM incubated for 24 hrs by qRT-PCR analysis; type: functional, cell-based
HeLa [12] = experiment: Upregulation of OPTN mRNA expression in human HeLa cells at 10 uM incubated for 24 hrs by qRT-PCR analysis; type: functional, cell-based
HeLa [13] = experiment: Upregulation of p62 mRNA expression in human HeLa cells at 10 uM incubated for 24 hrs by qRT-PCR analysis; type: functional, cell-based
HeLa [14] = experiment: Upregulation of […] mRNA expression in human HeLa cells at 10 uM incubated for 24 hrs by qRT-PCR analysis; type: functional, cell-based
HeLa [15] = experiment: Upregulation of ATG2A mRNA expression in human HeLa cells at 10 uM incubated for 24 hrs by qRT-PCR analysis; type: functional, cell-based
HeLa [16] = experiment: Upregulation of GLA mRNA expression in human HeLa cells at 10 uM incubated for 24 hrs by qRT-PCR analysis; type: functional, cell-based
HeLa [17] = experiment: Upregulation of Atg16L1 mRNA expression in human HeLa cells at 10 uM incubated for 24 hrs by qRT-PCR analysis; type: functional, cell-based
HeLa [18] = experiment: Upregulation of UVRAG mRNA expression in human HeLa cells at 10 uM incubated for 24 hrs by qRT-PCR analysis; type: functional, cell-based
HeLa [19] = experiment: Upregulation of LAMP1 mRNA expression in TFEB knockout human HeLa cells at 10 uM incubated for 24 hrs by qRT-PCR analysis; type: functional, cell-based
HeLa [20] = experiment: Upregulation of HEXA mRNA expression in TFEB knockout human HeLa cells at 10 uM incubated for 24 hrs by qRT-PCR analysis; type: functional, cell-based
HeLa [21] = experiment: Upregulation of CTSD mRNA expression in TFEB knockout human HeLa cells at 10 uM incubated for 24 hrs by qRT-PCR analysis; type: functional, cell-based
HeLa [22] = experiment: Upregulation of CTSF mRNA expression in TFEB knockout human HeLa cells at 10 uM incubated for 24 hrs by qRT-PCR analysis; type: functional, cell-based
HeLa [23] = experiment: Upregulation of LC3B mRNA expression in TFEB knockout human HeLa cells at 10 uM incubated for 24 hrs by qRT-PCR analysis; type: functional, cell-based
HeLa [24] = experiment: Upregulation of OPTN mRNA expression in TFEB knockout human HeLa cells at 10 uM incubated for 24 hrs by qRT-PCR analysis; type: functional, cell-based
HeLa [25] = experiment: Upregulation of p62 mRNA expression in TFEB knockout human HeLa cells at 10 uM incubated for 24 hrs by qRT-PCR analysis; type: functional, cell-based
HeLa [26] = experiment: Upregulation of […] mRNA expression in TFEB knockout human HeLa cells at 10 uM incubated for 24 hrs by qRT-PCR analysis; type: functional, cell-based
HeLa [27] = experiment: Upregulation of ATG2A mRNA expression in TFEB knockout human HeLa cells at 10 uM incubated for 24 hrs by qRT-PCR analysis; type: functional, cell-based
HeLa [28] = experiment: Upregulation of GLA mRNA expression in TFEB knockout human HeLa cells at 10 uM incubated for 24 hrs by qRT-PCR analysis; type: functional, cell-based
HeLa [29] = experiment: Upregulation of Atg16L1 mRNA expression in TFEB knockout human HeLa cells at 10 uM incubated for 24 hrs by qRT-PCR analysis; type: functional, cell-based
HeLa [30] = experiment: Upregulation of UVRAG mRNA expression in TFEB knockout human HeLa cells at 10 uM incubated for 24 hrs by qRT-PCR analysis; type: functional, cell-based
[31] = molecular target: Cyclin-dependent kinase 9 (Homo sapiens) (UniProt P50750); experiment: Inhibition of CDK9 in human SH-SY5Y cells assessed as decrease in Rpb1 phosphorylation at 10 uM incubated for 6 hrs by immunoblotting analysis; type: cell-based
HeLa [32] = experiment: Cytotoxicity against human HeLa cells assessed as effect on cell viability at 10 uM incubated for 24 hrs; type: functional, cell-based
SH-SY5Y = experiment: Cytotoxicity against human SH-SY5Y cells assessed as effect on cell viability at 10 uM incubated for 24 hrs; type: functional, cell-based
[33] = tested on: Primary neocortical neuron; experiment: Cytotoxicity against mouse Primary neocortical neuron cells assessed as effect on cell viability at 10 uM incubated for 24 hrs; type: functional, cell-based
HeLa [34] = experiment: Induction of cell cycle arrest in human HeLa cells assessed as effect on LAMP1 level at 10 uM incubated for 12 hrs by qRT-PCR analysis; type: functional, cell-based
HeLa [35] = experiment: Induction of cell cycle arrest in human HeLa cells assessed as effect on CDK4 level at 10 uM incubated for 12 hrs by qRT-PCR analysis; type: functional, cell-based
HeLa [36] = experiment: Induction of cell cycle arrest in human HeLa cells assessed as effect on CDK7 level at 10 uM incubated for 12 hrs by qRT-PCR analysis; type: functional, cell-based
HeLa [37] = experiment: Induction of cell cycle arrest in human HeLa cells assessed as effect on p21 level at 10 uM incubated for 12 hrs by qRT-PCR analysis; type: functional, cell-based
[38] = Volume of distribution at steady state in ICR mouse measured upto 24 hrs by LC-MS/MS analysis; type: ADME; conditions: in vivo, read-out: Vdss
[39] = Tmax in ICR mouse at 20 mg/kg, po measured upto 24 hrs by LC-MS/MS analysis; type: ADME, organism-based; conditions: in vivo
[40] = Tmax in ICR mouse at 10 mg/kg, ip measured upto 24 hrs by LC-MS/MS analysis; type: ADME, organism-based; conditions: in vivo
[41] = Half life in ICR mouse at 20 mg/kg, po measured upto 24 hrs by LC-MS/MS analysis; type: ADME, organism-based; conditions: in vivo
[42] = Half life in ICR mouse at 10 mg/kg, ip measured upto 24 hrs by LC-MS/MS analysis; type: ADME, organism-based; conditions: in vivo
[43] = Cmax in ICR mouse at 20 mg/kg, po measured upto 24 hrs by LC-MS/MS analysis; type: ADME, organism-based; conditions: in vivo
[44] = Cmax in ICR mouse at 10 mg/kg, ip measured upto 24 hrs by LC-MS/MS analysis; type: ADME, organism-based; conditions: in vivo
[45] = AUC (0 to t) in ICR mouse at 20 mg/kg, po measured upto 24 hrs by LC-MS/MS analysis; type: ADME, organism-based; conditions: ICR, in vivo
[46] = AUC (0 to t) in ICR mouse at 10 mg/kg, ip measured upto 24 hrs by LC-MS/MS analysis; type: ADME, organism-based; conditions: in vivo
[47] = Clearance in ICR mouse at 5 mg/kg, iv measured upto 24 hrs by LC-MS/MS analysis; type: ADME, organism-based; conditions: in vivo
[48] = Bioavailability in ICR mouse at 5 mg/kg, ip measured upto 24 hrs by LC-MS/MS analysis; type: ADME, organism-based; conditions: in vivo
[49] = Oral bioavailability in ICR mouse at 20 mg/kg measured upto 24 hrs by LC-MS/MS analysis; type: ADME, organism-based; conditions: ICR, in vivo
[50] = Ratio of drug concentration in ICR mouse brain to plasma at 10 mg/kg, ip measured upto 24 hrs by LC-MS/MS analysis; type: ADME, organism-based; conditions: brain and plasma, read-out: BPR
[51] = Ratio of drug concentration in ICR mouse brain to plasma at 5 mg/kg, iv measured upto 24 hrs by LC-MS/MS analysis; type: ADME, organism-based; conditions: brain and plasma, read-out: BPR

Chain of Cyclin-dependent kinase 9 (Homo sapiens) (P50750 whole entry): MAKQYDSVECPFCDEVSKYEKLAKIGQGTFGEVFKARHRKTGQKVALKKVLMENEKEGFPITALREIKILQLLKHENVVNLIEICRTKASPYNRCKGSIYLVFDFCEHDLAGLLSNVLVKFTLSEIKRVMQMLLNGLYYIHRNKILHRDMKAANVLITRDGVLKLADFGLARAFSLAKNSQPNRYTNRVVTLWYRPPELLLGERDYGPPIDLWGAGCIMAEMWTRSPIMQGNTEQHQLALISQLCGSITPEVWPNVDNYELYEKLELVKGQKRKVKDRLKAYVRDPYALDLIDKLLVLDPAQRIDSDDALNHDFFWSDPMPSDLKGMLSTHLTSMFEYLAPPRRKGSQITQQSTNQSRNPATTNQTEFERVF

COc1ccc2[nH]cc(CCC3c4cc(OC)c(OC)cc4CCN3CC3CCOCC3)c2c1 (stereo not drawn)
21.5 ng·h/mL: AUC(0-t) at 24 h [5]
76%: Activity [2]
97.5 L/kg: Vd [38]
inactive: Activity (HeLa [34]) | Activity (HeLa [35]) | Activity (HeLa [36]) | Activity (HeLa [37])
74%: Activity [1]
active: Activity (HeLa [6]) | Activity (HeLa [7]) | Activity (HeLa [8]) | Activity (HeLa [9]) | Activity (HeLa [10]) | Activity (HeLa [11]) | Activity (HeLa [12]) | Activity (HeLa [13]) | Activity (HeLa [14]) | Activity (HeLa [15]) | Activity (HeLa [16]) | Activity (HeLa [17]) | Activity (HeLa [18]) | Activity (HeLa [19]) | Activity (HeLa [20]) | Activity (HeLa [21]) | Activity (HeLa [22]) | Activity (HeLa [23]) | Activity (HeLa [24]) | Activity (HeLa [25]) | Activity (HeLa [26]) | Activity (HeLa [27]) | Activity (HeLa [28]) | Activity (HeLa [29]) | Activity (HeLa [30]) | inhibition [31] | Activity (HeLa [32]) | Activity (SH-SY5Y) | Activity [33]
98%: Activity [4]
96%: Activity [3]

COc1cc2c(cc1OC)C(CCc1c[nH]c3ccccc13)N(CC1CCOCC1)CC2 (stereo not drawn)
47%: Activity [2]
604 ng·h/mL: AUC(0-t) at 24 h [5]
85%: Activity [3] | Activity [4]
0.67%: bioavailability [49]
216 min: half-life [41]
620 ng/mL: Cmax [44]
58.2 min: half-life [42]
10.8 min: Tmax [40]
8.66 L/kg: Vd [38]
27%: Activity [1]
609 ng·h/mL: AUC(0-t) at 24 h [46]
140 mL/min/kg: clearance [47]
active: Activity (HeLa [6]) | Activity (HeLa [7]) | Activity (HeLa [8]) | Activity (HeLa [9]) | Activity (HeLa [10]) | Activity (HeLa [11]) | Activity (HeLa [12]) | Activity (HeLa [13]) | Activity (HeLa [14]) | Activity (HeLa [15]) | Activity (HeLa [16]) | Activity (HeLa [17]) | Activity (HeLa [18]) | Activity (HeLa [19]) | Activity (HeLa [20]) | Activity (HeLa [21]) | Activity (HeLa [22]) | Activity (HeLa [23]) | Activity (HeLa [24]) | Activity (HeLa [25]) | Activity (HeLa [26]) | Activity (HeLa [27]) | Activity (HeLa [28]) | Activity (HeLa [29]) | Activity (HeLa [30])
16.3 ng·h/mL: AUC(0-t) at 24 h [45]
9.14 ng/mL: Cmax [43]
50.4%: bioavailability [48]
1.9: Kp at 24 h [50]
25.2 min: Tmax [39]
2.2: Kp at 24 h [51]
